Data on three molecules can be found in US12138256B2, “Treatment of cardiopulmonary disorders” (Bayer Aktiengesellschaft, priority 2021, dated 2024).

The nature of series [1]: Caco-2 permeability test (C-5.1). It counts as in vitro ADME, human. Particulars: human, Caco-2 (2 μM). The method, then: The in vitro permeation of a test compound across a Caco-2 cell monolayer is a well-established assay system to predict the permeability from the gastro-intestinal tract (1). The permeability of the compounds of the present invention in such Caco-2 cells was determined as described below:
Human caco-2 cells were seeded on 24-well insert plates and were allowed to grow for 14-16 days. For permeability studies, the test compounds were dissolved in DMSO and diluted to the final test concentration of 2 μM with transport buffer [Hanks' Buffered Salt Solution, Gibco/Invitrogen, further supplemented with glucose and HEPES]. For determination of the apical to basolateral permeability (PappA-B), the test compound solution was added to the apical side of the cell monolayer and transport buffer to the basolateral side of the monolayer; for determination of the basolateral to apical permeability (PappB-A), the test compound solution was added to the basolateral side of the cell monolayer and transport buffer to the apical side of the monolayer. Samples were taken from the donor compartment at the beginning of the experiment to confirm mass balance. After an incubation of 2 h at 37° C., samples were taken from both compartments. Samples were analyzed by LC-MS/MS, and the apparent permeability coefficients were calculated. Lucifer Yellow permeability was assayed for each cell monolayer to ensure cell monolayer integrity, and the permeability of Atenolol (low permeability marker) and Sulfasalazine (marker for active excretion) was determined for each batch as quality control.
(In general: Caco-2 monolayers are a common model of the intestinal barrier.)

Series [2] has as its system isolated Langendorff-perfused rat heart. Nature of the series: Isolated perfused heart according to Langendorff: perfusion pressure and wash-out score (C-1.2). Particulars: comparative example 11 300 nmol/l, others 100 nmol/l, n=6. The method, then:
Male Wistar rats (strain HsdCpb:WU) with a body weight of 200-250 g were anaesthetized with Narcoren® (100 mg/kg). The thorax was opened and the heart was then exposed, excised and connected to a Langendorff apparatus by placing a cannula into the aorta. The heart was perfused retrogradely at 9 ml/min at constant flow with a Krebs-Henseleit buffer solution (gassed with 95% O2 and 5% CO2, pH 7.4, 35° C.; composition in mmol/l: NaCl 118; KCl 3; NaHCO3 22; KH2PO4 1.2; MgSO4 1.2; CaCl2 1.8; Glucose 10; Na pyruvate 2). A pressure transducer registered the perfusion pressure in the perfusion system. The left ventricular pressure (LVP) was measured using a second pressure transducer connected to a water-filled balloon which was inserted into the left ventricle via the left atrium. The end diastolic pressure was initially set to 8 mm Hg by adjusting the volume of the balloon. The hearts were spontaneously beating. The signals from the pressure transducer were amplified, registered by a personal computer (Powerlab Chart software, ADInstruments).
Then the hearts were perfused for a further 120 min without the test substance (wash-out phase). The reversibility of the effect (wash-out score) was calculated as a percentage of the PP recovery after 60 min of washout related to the maximum drop of PP induced by the test compound. The wash-out score obtained in this manner was taken as a measure for the residence time of the test substance at the site of action.

For series [3], the system named is thromboxane analog U46619 induced PAH in minipigs. Nature of the series: PAH minipig model: comparison with and on top of standard of care (bosentan, sildenafil, riociguat). It counts as in vivo, Göttingen minipig. The text has this: Efficacy of inhaled comparative example 11 was compared with systemically applied bosentan, sildenafil and riociguat (see FIG. 53a) in the PAH minipig model. […] Therefore inhaled application of comparative example 11 offers clear benefits as systemic effects are avoided, compared to standard of care.

Series [4] is described as follows: Protein binding via ultrafiltration assay (comparative example 2). It counts as in vitro ADME. The text has this: For this assay, filter membranes of 30 kDa pore size were used to separate plasma and protein free ultrafiltrate. The driving force for filtration was applied by centrifugation. Prior to protein binding studies, the adsorption (recovery) of the test compound to the ultra-filtration device and the ability of the test compound to pass the filter membrane was checked by filtration of the test compound dissolved in buffer at four concentrations. Sufficient stability of the test compound and an almost complete recovery (≥90% of the actual amount of compound used for the experiment) was a prerequisite for the use of the ultrafiltration method. The amount of organic solvent added to the plasma may not exceed 2% of the total incubation volume. Blood samples were collected in heparinized tubes either pooled (all species except human and monkey) or individually (human and monkey) and were used within 24 h for incubation experiments in blood. Plasma was prepared by centrifugation of the heparinized blood samples. Plasma was stored at −15° C. until use. Plasma stability, Compound recovery, unspecific binding to the membrane and the test device as well as partitioning between blood cells and plasma were controlled. The substance-associated radioactivity was determined by liquid scintillation counting. With this analytical method, it is not possible to distinguish between unchanged substance and radioactive metabolites. For details of the radioanalytical methods and the work up of the samples see Goeller et al. (3). A description of the ultrafiltration method in general was published by Zhang et al. In 2012 (4).

Series [5] deals with pulmonary vascular resistance (PVR). Particulars: cited from earlier work.
Series [6] relates to thromboxane analog U46619 induced PAH in minipigs. Nature of the series: Haemodynamics (PAP, BP) in the anesthetized thromboxane challenged PAH minipig after inhaled (nebulized) application (C-2.1). Particulars: inhaled; Ventavis 10 μg/kg nominal dose; comparative example 11 10, 30 and 100 μg/kg nominal dose; 240 min observation interval. The class given is in vivo, Göttingen minipig. The method in brief:
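Anesthetized, ventilated Göttingen minipigs (2-6 kg) given continuous infusion (0.3-0.75 μg/kg/min) to raise mean PAP above 25 mmHg, dosing starting after a 30 min plateau. Compound in 1% DMSO/0.2% citric acid, pH 8, nebulized via Aeroneb Pro into the inspiratory arm (~7 min; stock 300 μg/kg). PAP by Swan-Ganz catheter, BP via carotid catheter.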

Series [7] deals with thromboxane analog U46619 induced PAH in minipigs with ODQ or L-NAME pretreatment. Nature of the series: PAH minipig model under oxidative stress / low NO (pretreatment by ODQ or L-NAME). Particulars: for BP / PAP: Ventavis 10 μg/kg nominal dose inhaled. The class given is in vivo, Göttingen minipig. Also noted: PAP / BP: unit not given beside the values. The method, then:
To simulate conditions of oxidative stress or low NO concentrations as assumed to be present in different cardiovascular disorders, comparative example 11 was evaluated with and without pretreatment by ODQ (inhibitor of sGC) or L-NAME (NOS inhibitor). […] In contrast, the effects of Ventavis® under conditions of oxidative stress or low NO concentrations were not enhanced. In addition, also under these pathophysiological conditions the duration of action of comparative example 11 was much longer compared to Ventavis®.

Where [8] appears, read: Riociguat 3 μg/kg/h systemically applied, % change per animal.

Structures are written as SMILES. Where “and” joins values, the source holds several entries; their conditions need not be identical. Equal values may be shown once.

Regarding `COC(=O)N(C)c1c(N)nc(-c2nn(Cc3ccccc3F)c3ncccc23)nc1N` [comparative example 2, Methyl-4,6-diamino-2-[1-(2-fluorobenzyl)-1H-pyrazolo[3,4-b]pyridine-3-yl]-5-pyrimi-dinyl(methyl)carbamate, reference compound], the efflux ratio at 2 h, 2 μM in series [1] was found to be 11 ± 3.3. Moreover, the Papp A→B at 2 h, 2 μM in series [1] (concentration per compound 2.0 or 2.4 μM, read-out: Papp A-B (mean +/− SD)) was 3.5 ± 0.84 ×10⁻⁶ cm/s. The Papp B→A at 2 h, 2 μM in series [1] (concentration per compound 2.0 or 2.4 μM, read-out: Papp B-A (mean +/− SD)) was determined as 36.7 ± 7.5 ×10⁻⁶ cm/s. In addition, in series [2] (PP recovery after 60 min of washout related to maximum drop of PP), the wash-out score amounted to 98%. Moreover, in series [2], the “effect on perfusion pressure (PP)” value was “pronounced reduction of perfusion pressure”. Moreover, in series [3] (setting [8]), the BP decrease % is −0.3% and −8.8% and −10.9%. Further, in series [3] (setting [8]), the PAP decrease % was −9.1% (2×) and −16.8%. In series [3] (bosentan 1 mg/kg, sildenafil 300 μg/kg/h, riociguat 3 μg/kg/h systemically, comparative example 11 30 and 100 μg/kg inhaled), the “effects on PAP and BP” value was “decreases in both PAP and BP”. The fraction unbound in series [4] (Dog Beagle plasma) stood at 0.171; in series [4] (Human (male) plasma) it was 0.0497; in series [4] (Rat Wistar plasma), 0.157.

For the molecule `CCCCC[C@H](O)CC[C@@H]1[C@H]2Cc3cccc(OCC(=O)O)c3C[C@H]2C[C@H]1O` [Treprostinil], the “mean change in PVR from baseline” value in series [5] (single administration, historical comparison) is listed as −30%.

`CC#CCC(C)[C@H](O)/C=C/[C@@H]1[C@H]2C/C(=C/CCCC(=O)O)C[C@H]2C[C@H]1O` (stereo partly drawn) [Ventavis, reference compound]: the “duration of action on haemodynamics (PVR) in clinical studies” value in series [5] (inhaled, patients) is given as “about 60 min”. For the same molecule, the duration of action entry in series [6] was “about 40 min”. For the same molecule, the BP in series [7] (L-NAME pretreatment, Time 70) is 105.0 and 133.0 and 125.0; in series [7] (L-NAME pretreatment, Time 80) it was 106.0 and 131.0 and 123.0; in series [7] (L-NAME pretreatment, Time 90) it was 102.0 and 124.0 and 121.0; in series [7] (L-NAME pretreatment, Time 100) it was 101.0 and 124.0 and 117.0; in series [7] (L-NAME pretreatment, Time 110), 101.0 and 125.0 and 114.0; in series [7] (ODQ pretreatment, Time 70), 97.0 and 103.0 and 92.0. In addition, the BP in series [7] (ODQ pretreatment, Time 80) was 98.0 and 105.0 and 92.0; in series [7] (ODQ pretreatment, Time 90), 100.0 and 104.0 and 92.0; in series [7] (ODQ pretreatment, Time 100), 101.0 and 104.0 and 93.0; in series [7] (ODQ pretreatment, Time 110), 103.0 and 94.0; in series [7] (without pretreatment, Time 70) it was 107.0 and 109.0 and 116.0; in series [7] (without pretreatment, Time 80) it was 102.0 and 110.0 and 113.0. Moreover, the BP was 99.0 and 109.0 and 111.0 in series [7] (without pretreatment, Time 90); 98.0 and 106.0 and 108.0 in series [7] (without pretreatment, Time 100); 95.0 and 105.0 and 106.0 in series [7] (without pretreatment, Time 110). The PAP in series [7] (L-NAME pretreatment, Time 70) was 31.7 and 27.4 and 28.7; in series [7] (L-NAME pretreatment, Time 80) it was 41.2 and 33.5 and 29.7; in series [7] (L-NAME pretreatment, Time 90), 42.2 and 37.9 and 32.1; in series [7] (L-NAME pretreatment, Time 100) it was 41.5 and 39.6 and 38.9; in series [7] (L-NAME pretreatment, Time 110), 41.5 and 41.0; in series [7] (ODQ pretreatment, Time 70) it was 33.6 and 26.4 and 25.9. Also, the PAP in series [7] (ODQ pretreatment, Time 80) was 37.4 and 32.8 and 32.1; in series [7] (ODQ pretreatment, Time 90), 38.5 and 37.5 and 38.2; in series [7] (ODQ pretreatment, Time 100), 38.8 and 40.6 and 39.2; in series [7] (ODQ pretreatment, Time 110), 39.3 and 39.5 and 40.0; in series [7] (without pretreatment, Time 70) it was 26.1 and 28.2 and 29.6; in series [7] (without pretreatment, Time 80) it was 34.7 and 36.7 and 37.4. For the same molecule, the PAP is 38.9 and 41.2 in series [7] (without pretreatment, Time 90); 37.9 and 39.2 and 41.9 in series [7] (without pretreatment, Time 100); 38.4 and 39.5 and 42.2 in series [7] (without pretreatment, Time 110). The “effect on PAP after pretreatment of ODQ or L-NAME” value in series [7] (inhaled, comparative example 11 30 μg/kg ND, Ventavis 10 μg/kg nominal dose) is “not enhanced”.

By efflux ratio is commonly meant the permeability from basolateral to apical divided by that in the opposite direction, in the common usage. What is called fraction unbound is the share of the substance not bound to proteins or other matrix.
